Measured values reported in patent US20120315345A1, “FUNCTIONAL FOOD AND PHARMACEUTICAL COMPOSITIONS FOR ANTI-OBESITY COMPRISING CAPSANTHIN AND FATTY-ACYL ESTER OF CAPSANTHIN HAVING ANTI-ADIPOGENIC ACTIVITY” (ESBIOTECH CO., LTD., priority 2011, published 2012).
Where two headings read alike, the source gives them in different places.

Experiments:
3T3-L1 cell = assay: Inhibitory activity on triglycerides accumulation in adipocyte (Oil Red O staining); format: cell-based, mouse; conditions: read-out: IC50-value on triglycerides accumulation in adipocyte
Method: (§1) 3T3-L1 mouse embryonic fibroblast was cultured according to Singh's method (Singh R, Testosterone inhibits adipogenic differentiation in 3T3-L1 cells: Nuclear translocation of androgen receptor complex with β-catenin and T-cell factor 4 may bypass canonical WNT signaling to down-regulate adipogenic transcription factors, Endocrinology, 2006, 147, 141 to 154).
(§2) 3T3-L1 cells supplied by Korean cell line bank were cultured on a Dulbecco's modified Eagle's medium (DMEM) medium that includes 10% bovine calf serum and 1% penicillin-streptomycin mixture. When they reached confluence, culturing was continued for further 2 to 3 days. Thereafter, the medium was replaced by a fresh DMEM medium containing 10% fetal bovine serum, 1.7 μM insulin, 0.5 mM 3-isobutyl-1-methylxanthine (IBMX) and 1 μM dexamethasone and culturing was continued for 8 days. For the evaluation of inhibitory activities of capsanthin on adipocyte differentiation and on triglycerides accumulation in adipocyte, a positive control experiments were conducted on capsaicin (sigma) and/or genistein (sigma).
Negal's Oil red O staining procedure (Negrel R, Culture of adipose precursor cell and cells of clonal lines from animal white adipose tissue, in adipose tissue protocols. G. Ailhaud (ed). Humana press, inc., Totowa, N.J., 2001, 225-237) was adopted to assay the quantities of triglyceides accumulated in adipocytes. The pre-adipocytes (3T3-L1 cell) were cultured in 12-well culture plate for additional two days to induce clonal expansion after the confluent phase. The culture media was replaced with differentiation media which is containing various concentration of capsanthin solution in DMSO (final concentration of DMSO in the differentiation media were kept under 0.1%) and cultured for additional 8 days to induce lipid accumulation. The culture media was removed by aspiration and washed with PBS. The cells were fixed on the surface of culture well by incubation for one hour with 500 ul of 10% formaldehyde solution. After removal of formaldehyde the cells were washed with PBS and then stained by incubation with Oil Red O for 2 hours. After two removal of Oil Red O solution by aspiration the cells were washed with PBS and then Oil Red O in adipocyte was extracted by incubation 10 minutes with 1 ml isopropyl-alcohol. Oil Red O contents in isopropyl-alcohol were assayed by 510 nm absorption on ELISA reader.

3T3-L1 cells = assay: Inhibition test on adipocyte differentiation (counting of Oil Red O stained cells); format: cell-based, mouse; conditions: 3 days in differentiation medium, microscopical counting of Oil Red O stained cells
Method: as §1, §2
Mouse embryonic 3T3-L1 cells were plated in 12-well culture plate with DMEM containing 10% BCS (Bovine calf serum) and cultured for the proliferation of cells under 5% CO2 atmosphere at 37° C. until confluent phase is appeared. Continued culture for additional 2 days will ensure the clonal expansion. Culture media is replaced with differentiation medium consisting of DMEM, 10% FBS, 1.7 uM insulin, 0.5 mM IBMX, 1 uM dexamethasone and varying amount of capsanthin in DMSO (final concentration of DMSO in the differentiation media were kept under 0.1%) and cultured additional 3 days for the induction of cell differentiation Culture media was removed and washed with PBS and the cells were fixed on the well surface by incubation with 10% formaldehyde for one hour and then washed with PBS. The differentiate cells were stained with Oil Red O solution for 2 hours. The number of adipocyte stained red was counted with microscopical observation.

[1] = Stability during fermentation of kochujang; format: physicochemical
Description: Capsanthin is contained in the natural products such as red peppers as the chemically stable esterified-form. Therefore, even when red peppers or the likes are included in fermented foods as the Korean traditional foods like “kimchi” or “kochujang” (also referred to as “gochujang”), original anti-adipogenic activities thereof are retained. On the other hand, it was found in our laboratory that about 35% or more of anti-adipogenic capsaicin component was destroyed during 6 month-long fermentation.
Red pepper is a traditional spicy vegetable food and more than 90% of total consumption in Korea is used to prepare traditional fermented food such as “kimchi” and “kochujang” in Korea. […] Based on this observation, present inventors are claiming that the anti-adipogenic activity of “kochujang” is due more to capsanthin components rather than to the capsaicin or capsaicin metabolite.

[2] = parameters: species or system Sprague-Dawley albino rats; conditions: rat, in vivo
Method: Male Sprague-Dawley albino rats were used for the analysis of gastro-intestinal absorption of capsanthins. Animals were accommodated in a constant humidity of 50 (±5) % and constant temperature of 25 (±1)° C. under shading control of light and dark with 12 hours intervals. Feeds and water supplies were provided at libidium.
Free-form capsanthin (15 mg/kg body wt) in soy-bean oil was orally administered to group-1 animals and then 4 ml time-course blood samples were collected from the animals to EDTA tubes and centrifuged (3,000 rpm, 10 min) to obtain 1 ml plasma samples. To the plasma samples 1 ml of 1%-BHT in ethanol and 2 ml hexane were mixed, shaked vigorously and centrifuged for 5 minutes at 2,000 rpm to obtain hexane layer for the HPLC-analysis under the HPLC-condition appears in Example 10. (M. A. Grashom, Quantification of carotenoids in chicken plasma after feeding free of esterified lutein and capsanthin using high-performance liquid chromatography and liquid chromatography-mass spectrometry analysis, Poultry science, 2003, 82, 395-401, Hideo E, Carotenoids in human blood plasma after ingesting paprika juice)
Fatty-acyl ester of capsanthin was orally administered to group-2 animals equimolar dosage bases with that of free-form capsanthin. The time course collection of blood and further treatments were conducted as same way with that of group-1 experiments [Ref. to 0086]

[3] = 3T3-L1 cells, 8 days in differentiation media, Oil Red O

Compound | IC50 (3T3-L1 cell; Mus musculus, 3T3-L1, 192 h) | IC50 (3T3-L1 cells; Mus musculus, 72 h) | Component destroyed during fermentation ([1]; 6 month-long fermentation) | Chemical alteration during fermentation of kochujang [1] | IC50 (3T3-L1 cell; [3]) | IC50 (3T3-L1 cells) | Molecular species found in the blood by HPLC after oral administration [2] | IC50 (3T3-L1 cell; Mus musculus, 192 h, 3T3-L1 cells, 8 days in differentiation media, Oil Red O)
COc1cc(CNC(=O)CCCC/C=C/C(C)C)ccc1O [capsaicin] | 32.6 µM | 3.39 µM | ≥ 35% | significant decomposition | – | – | – | –
CC1=C(/C=C/C(C)=C/C=C/C(C)=C/C=C/C=C(C)/C=C/C=C(C)/C=C/C(=O)[C@]2(C)C[C@@H](O)CC2(C)C)C(C)(C)C[C@H](O)C1 [free-form capsanthin, capsanthin] | – | – | – | – | 1.31 µM | 4.49 µM | appeared in the blood | –
O=c1c(-c2ccc(O)cc2)coc2cc(O)cc(O)c12 [genistein] | – | 28.1 µM | – | – | – | – | – | 58.7 µM
fatty-acyl ester of capsanthin [esterified-form capsanthin] | – | – | – | remained without any chemical alteration | 55.2 µM | 75.4 µM | not detected | –
fucoxanthin | – | – | – | – | 54.8 µM | 79.1 µM | – | –
